Assay results: US8802700B2 (Vertex Pharmaceuticals Incorporated, priority 2010, dated 2014)

target: T1, ΔF508-CFTR (Homo sapiens, UniProt P13569, DEL508-508); test: Membrane potential optical assay (FRET voltage-sensor dyes, VIPR), identification of potentiator compounds; type: cell-based; settings: Table 3; assay not given
T1 construct: expressed in transfected cells
Method in brief: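 NIH3T3 mouse fibroblasts stably expressing ΔF508-CFTR, cultured 24 h at 27 °C, were loaded with FRET voltage dyes CC2-DMPE and DiSBAC2(3). Double-addition format: first addition of Cl⁻-free (gluconate) medium with or without compound; membrane-potential change read as fluorescence on VIPR II.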

T1 sequence (P13569 with tags, fused parts or gaps DEL508-508): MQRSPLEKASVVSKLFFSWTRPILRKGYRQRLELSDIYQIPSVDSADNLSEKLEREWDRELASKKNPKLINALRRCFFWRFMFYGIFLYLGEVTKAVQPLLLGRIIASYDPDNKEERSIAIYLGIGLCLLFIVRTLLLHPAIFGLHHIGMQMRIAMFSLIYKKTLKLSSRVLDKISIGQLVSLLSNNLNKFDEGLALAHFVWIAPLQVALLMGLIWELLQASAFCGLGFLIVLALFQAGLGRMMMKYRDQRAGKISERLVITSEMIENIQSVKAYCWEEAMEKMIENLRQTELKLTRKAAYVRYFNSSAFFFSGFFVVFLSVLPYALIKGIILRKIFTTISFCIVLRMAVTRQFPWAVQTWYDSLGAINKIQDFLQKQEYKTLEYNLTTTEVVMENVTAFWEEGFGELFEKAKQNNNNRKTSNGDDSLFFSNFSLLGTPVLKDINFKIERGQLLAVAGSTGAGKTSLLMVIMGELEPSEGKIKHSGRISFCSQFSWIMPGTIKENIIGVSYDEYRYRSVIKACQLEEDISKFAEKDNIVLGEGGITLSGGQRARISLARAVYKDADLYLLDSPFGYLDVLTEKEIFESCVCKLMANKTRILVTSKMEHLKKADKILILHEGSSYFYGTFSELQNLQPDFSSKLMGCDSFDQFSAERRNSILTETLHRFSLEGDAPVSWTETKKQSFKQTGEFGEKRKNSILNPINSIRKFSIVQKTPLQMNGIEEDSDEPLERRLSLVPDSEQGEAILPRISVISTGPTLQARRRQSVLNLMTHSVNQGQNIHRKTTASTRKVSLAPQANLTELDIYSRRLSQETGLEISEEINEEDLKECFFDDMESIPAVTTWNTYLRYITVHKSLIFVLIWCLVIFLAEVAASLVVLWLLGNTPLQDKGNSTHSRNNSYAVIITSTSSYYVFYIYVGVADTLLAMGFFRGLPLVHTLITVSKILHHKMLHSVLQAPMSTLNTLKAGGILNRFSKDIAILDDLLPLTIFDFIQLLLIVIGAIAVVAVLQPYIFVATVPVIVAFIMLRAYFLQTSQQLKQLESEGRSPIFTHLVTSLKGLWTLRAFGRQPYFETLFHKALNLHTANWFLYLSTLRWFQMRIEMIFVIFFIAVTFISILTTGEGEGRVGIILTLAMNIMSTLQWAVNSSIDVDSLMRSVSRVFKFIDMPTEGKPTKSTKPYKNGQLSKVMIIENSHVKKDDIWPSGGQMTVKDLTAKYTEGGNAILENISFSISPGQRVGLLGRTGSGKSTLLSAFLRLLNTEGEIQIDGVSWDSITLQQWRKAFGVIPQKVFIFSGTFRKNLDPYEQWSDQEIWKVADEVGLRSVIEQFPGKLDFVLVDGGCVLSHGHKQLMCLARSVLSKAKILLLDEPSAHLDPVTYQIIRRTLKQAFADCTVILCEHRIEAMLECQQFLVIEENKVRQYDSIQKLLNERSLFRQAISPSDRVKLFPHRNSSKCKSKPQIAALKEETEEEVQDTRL

EC50 | Compound
10 to 25 µM | CC(C)(C)c1cc(C(C)(C)C)c(NC(=O)c2c[nH]c3ccc(C(F)(F)F)cc3c2=O)cc1O [Compound 515, N-(5-hydroxy-2,4-ditert-butyl-phenyl)-4-oxo-6-(trifluoromethyl)-1H-quinoline-3-carboxamide]
< 10 µM | CCc1cccc(C(C)C)c1NC(=O)c1c[nH]c2ccccc2c1=O [Compound 314, N-(2-ethyl-6-isopropyl-phenyl)-4-oxo-1H-quinoline-3-carboxamide]

same assay, conditions: Table 3; assay not given; read-out: % Activity (% Efficacy, relative efficacy)

Compound | Emax
CC(=O)n1ccc2ccc(NC(=O)c3c[nH]c4ccccc4c3=O)cc21 [Compound 187, N-(1-acetyl-1H-indol-6-yl)-4-oxo-1H-quinoline-3-carboxamide] | 25 to 100%
O=C(Nc1cccc(OC(F)(F)F)c1)c1c[nH]c2ccccc2c1=O [Compound 62, 4-oxo-N-[3-(trifluoromethoxy)phenyl]-1H-quinoline-3-carboxamide] | 25 to 100%
O=C(Nc1cccc2cc[nH]c12)c1c[nH]c2ccccc2c1=O [Compound 37, N-(1H-indol-7-yl)-4-oxo-1H-quinoline-3-carboxamide] | 25 to 100%
O=C(Nc1c(Cl)cccc1Cl)c1c[nH]c2ccccc2c1=O [Compound 317, N-(2,6-dichlorophenyl)-4-oxo-1H-quinoline-3-carboxamide] | 25 to 100%
O=C(Nc1ccccc1-c1cc(Cl)cc(Cl)c1)c1c[nH]c2ccccc2c1=O [Compound 367, N-[2-(3,5-dichlorophenyl)phenyl]-4-oxo-1H-quinoline-3-carboxamide] | 25 to 100%
CC(C)c1ccc(-c2cc3cc[nH]c3cc2NC(=O)c2c[nH]c3ccccc3c2=O)cc1 [Compound 342, N-[5-(4-isopropylphenyl)-1H-indol-6-yl]-4-oxo-1H-quinoline-3-carboxamide] | 25 to 100%
CN(C(=O)c1c[nH]c2ccccc2c1=O)c1cc(O)c(C(C)(C)C)cc1C(C)(C)C [Compound 337, N-(5-hydroxy-2,4-ditert-butyl-phenyl)-N-methyl-4-oxo-1H-quinoline-3-carboxamide] | 25 to 100%
O=C(Nc1ccccc1Cl)c1c[nH]c2ccccc2c1=O [Compound 330, N-(2-chlorophenyl)-4-oxo-1H-quinoline-3-carboxamide] | 25 to 100%
CCC(CC)(c1cc(F)c(NC(=O)c2cnc3ccccc3c2O)cc1O)C(C)(C)C [Compound 153, N-[4-(1,1-diethyl-2,2-dimethyl-propyl)-2-fluoro-5-hydroxy-phenyl]-4-hydroxy-quinoline-3-carboxamide] | 25 to 100%
O=C(Nc1ccccc1-c1cccc(F)c1F)c1c[nH]c2ccccc2c1=O [Compound 285, N-[2-(2,3-difluorophenyl)phenyl]-4-oxo-1H-quinoline-3-carboxamide] | 25 to 100%
COC(=O)NCC(C)(C)c1ccc(NC(=O)c2c[nH]c3ccccc3c2=O)cc1 [Compound 323, [2-Methyl-2-[4-[(4-oxo-1H-quinolin-3-yl)carbonylamino]phenyl]-propyl]aminoformic acid methyl ester] | 25 to 100%
O=C(Nc1ccccc1SC(F)(F)F)c1c[nH]c2ccccc2c1=O [Compound 371, 4-oxo-N-[2-(trifluoromethylsulfanyl)phenyl]-1H-quinoline-3-carboxamide] | 25 to 100%
Cc1ccc(NC(=O)c2c[nH]c3ccccc3c2=O)c(F)c1 [Compound 289, N-(2-fluoro-4-methyl-phenyl)-4-oxo-1H-quinoline-3-carboxamide] | 25 to 100%
CCc1cccc(C(C)C)c1NC(=O)c1c[nH]c2ccccc2c1=O [Compound 314, N-(2-ethyl-6-isopropyl-phenyl)-4-oxo-1H-quinoline-3-carboxamide] | 25 to 100%
CC(C)(C)c1cc2cc[nH]c2cc1NC(=O)c1c[nH]c2ccc(F)cc2c1=O [Compound 124, 6-fluoro-4-oxo-N-(5-tert-butyl-1H-indol-6-yl)-1H-quinoline-3-carboxamide] | > 100%
CCCOc1ccc(N)cc1NC(=O)c1c[nH]c2ccccc2c1=O [Compound 17, N-(5-Amino-2-propoxy-phenyl)-4-oxo-1H-quinoline-3-carboxamide] | 25 to 100%

More lines, now with the values ahead:

Emax | Compound
25 to 100% | CCCc1ccc(NC(=O)OC)cc1NC(=O)c1c[nH]c2ccccc2c1=O [Compound 471, [3-[(4-oxo-1H-quinolin-3-yl)carbonylamino]-4-propyl-phenyl]aminoformic acid methyl ester]
< 25% | CC(=O)Nc1cccc(NC(=O)c2c[nH]c3ccccc3c2=O)c1 [Compound 419, N-(3-acetylaminophenyl)-4-oxo-1H-quinoline-3-carboxamide]
< 25% | CCOc1cccc2c(=O)c(C(=O)Nc3cc(O)c(C(C)(C)C)cc3C(C)(C)C)c[nH]c12 [Compound 616, 8-ethoxy-N-(5-hydroxy-2,4-ditert-butyl-phenyl)-4-oxo-1H-quinoline-3-carboxamide]
< 25% | O=C(Nc1ccc2nc[nH]c2c1)c1c[nH]c2ccccc2c1=O [Compound 414, N-(3H-benzoimidazol-5-yl)-4-oxo-1H-quinoline-3-carboxamide]
25 to 100% | O=C(Nc1ccc(N2CCC[C@H]2CO)cc1C(F)(F)F)c1c[nH]c2ccccc2c1=O [Compound 634, (S)-N-(4-(2-(hydroxymethyl)pyrrolidin-1-yl)-2-(trifluoromethyl)phenyl)-4-oxo-1,4-dihydroquinoline-3-carboxamide]
25 to 100% | Cc1ccc2c(=O)c(C(=O)Nc3cc4[nH]ccc4cc3C(C)(C)C)c[nH]c2c1 [Compound 704, 7-methyl-4-oxo-N-(5-tert-butyl-1H-indol-6-yl)-1H-quinoline-3-carboxamide]
< 25% | CC(C)(C)c1cc(C(C)(C)C)c(NC(=O)c2c[nH]c3ccc(C(F)(F)F)cc3c2=O)cc1O [Compound 515, N-(5-hydroxy-2,4-ditert-butyl-phenyl)-4-oxo-6-(trifluoromethyl)-1H-quinoline-3-carboxamide]
< 25% | CCn1cc(C(=O)Nc2ccccc2)c(=O)c2cc(OC)ccc21 [Compound 480, 1-ethyl-6-methoxy-4-oxo-N-phenyl-1H-quinoline-3-carboxamide]
25 to 100% | CC(C)(C)c1ccc(NC(=O)c2c[nH]c3cccc(O)c3c2=O)cc1O [Compound 633, 5-hydroxy-N-(3-hydroxy-4-tert-butyl-phenyl)-4-oxo-1H-quinoline-3-carboxamide]
25 to 100% | Cc1ccc(C)c(NC(=O)c2c[nH]c3ccccc3c2=O)c1 [Compound 434, N-(2,5-dimethylphenyl)-4-oxo-1H-quinoline-3-carboxamide]
25 to 100% | Cc1cc(OC(F)(F)F)ccc1NC(=O)c1c[nH]c2ccccc2c1=O [Compound 538, N-[2-methyl-4-(trifluoromethoxy)phenyl]-4-oxo-1H-quinoline-3-carboxamide]
25 to 100% | Nc1cccc(NC(=O)c2c[nH]c3ccccc3c2=O)c1 [Compound 431, N-(3-aminophenyl)-4-oxo-1H-quinoline-3-carboxamide]
25 to 100% | CC(C)(C)c1cc(F)c(NC(=O)c2c[nH]c3cc(F)c(F)cc3c2=O)cc1O [Compound 486, 6,7-difluoro-N-(2-fluoro-5-hydroxy-4-tert-butyl-phenyl)-4-oxo-1H-quinoline-3-carboxamide]
25 to 100% | CC(C)(C)c1cc(C(F)(F)F)c(NC(=O)c2c[nH]c3ccc(F)cc3c2=O)cc1O [Compound 509, 6-fluoro-N-[5-hydroxy-4-tert-butyl-2-(trifluoromethyl)phenyl]-4-oxo-1H-quinoline-3-carboxamide]
25 to 100% | Cc1cccc2[nH]cc(C(=O)Nc3ccc(N4CC[C@@H](F)C4)cc3C(F)(F)F)c(=O)c12 [Compound 541, (R)-N-(4-(3-fluoropyrrolidin-1-yl)-2-(trifluoromethyl)phenyl)-5-methyl-4-oxo-1,4-dihydroquinoline-3-carboxamide]
25 to 100% | CC(O)c1ccc(NC(=O)c2c[nH]c3ccccc3c2=O)cc1 (stereo not shown) [Compound 450, N-[4-(1-hydroxyethyl)phenyl]-4-oxo-1H-quinoline-3-carboxamide]
